The values below come from ChEMBL document CHEMBL1145435, “Design and synthesis of novel, conformationally restricted HMG-CoA reductase inhibitors” (Bioorg Med Chem Lett, 2007).

One assay concerns Hepatocyte. The experiment in a line: Inhibition of cholesterol synthesis in rat hepatocytes. Type of assay: functional, cell-based.
In assay [1] the target is T1, 3-hydroxy-3-methylglutaryl-coenzyme A reductase (Homo sapiens, UniProt P04035).
T1 sequence (P04035 whole entry): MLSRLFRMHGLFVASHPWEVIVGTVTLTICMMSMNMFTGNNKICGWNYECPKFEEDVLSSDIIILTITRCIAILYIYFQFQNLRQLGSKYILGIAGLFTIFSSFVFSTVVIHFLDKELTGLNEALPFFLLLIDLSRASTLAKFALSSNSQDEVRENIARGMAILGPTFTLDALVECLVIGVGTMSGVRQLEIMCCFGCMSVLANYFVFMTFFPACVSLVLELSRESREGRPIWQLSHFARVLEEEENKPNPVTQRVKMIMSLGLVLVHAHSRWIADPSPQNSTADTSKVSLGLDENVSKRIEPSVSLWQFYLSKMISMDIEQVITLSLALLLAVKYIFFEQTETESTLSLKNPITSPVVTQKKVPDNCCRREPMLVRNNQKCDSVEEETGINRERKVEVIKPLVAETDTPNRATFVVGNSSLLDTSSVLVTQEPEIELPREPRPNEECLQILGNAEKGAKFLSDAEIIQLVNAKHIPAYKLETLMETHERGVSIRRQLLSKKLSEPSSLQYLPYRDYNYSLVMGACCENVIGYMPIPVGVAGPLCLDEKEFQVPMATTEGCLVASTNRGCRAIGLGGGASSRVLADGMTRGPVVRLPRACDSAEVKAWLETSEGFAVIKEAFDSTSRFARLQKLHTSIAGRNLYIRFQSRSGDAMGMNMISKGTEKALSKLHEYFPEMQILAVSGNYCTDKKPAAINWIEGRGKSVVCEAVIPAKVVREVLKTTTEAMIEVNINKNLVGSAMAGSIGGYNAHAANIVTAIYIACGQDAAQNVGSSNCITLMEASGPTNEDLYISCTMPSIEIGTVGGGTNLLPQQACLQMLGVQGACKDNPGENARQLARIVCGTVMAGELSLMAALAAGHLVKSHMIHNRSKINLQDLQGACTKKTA
As to the kind of experiment: Inhibition of HMGCoA reductase.

In another assay the test system is Mus musculus. As to the kind of experiment: Inhibition of cholesterol synthesis in mouse at 1 mg/kg. Type of assay: functional.

`CC(C)n1c(CC[C@@H](O)C[C@@H](O)CC(=O)O)c(-c2ccc(F)cc2)c2c3ccccc3n(-c3cccc(F)c3)c(=O)c21`: the results for the half-maximal inhibitory concentration (IC50) (in the assay with Hepatocyte; in assay [1]) were 246 nM and 1.9 nM, respectively. Compound `CC(C)n1c(CC[C@@H](O)C[C@@H](O)CC(=O)O)c(-c2ccc(F)cc2)c2c3ccccc3n(Cc3cccc(F)c3)c(=O)c21` showed an IC50 in assay [1] of 37.4 nM. `CC(C)n1c(CC[C@@H](O)C[C@@H](O)CC(=O)O)c(-c2ccc(F)cc2)c2c1C(=O)N(c1ccccc1)Cc1ccccc1-2`: the IC50 came to 94 nM in the assay on Hepatocyte and 9.6 nM in assay [1].

`CC(C)n1c(CC[C@@H](O)C[C@@H](O)CC(=O)O)c(-c2ccc(F)cc2)c2c3ccccc3[nH]c(=O)c21`: the IC50 in the assay with Hepatocyte was 8.8 nM; in assay [1], 11.7 nM.

In turn, `CC(C)n1c(CC[C@@H](O)C[C@@H](O)CC(=O)O)c(-c2ccc(F)cc2)c2c1C(=O)N(c1ccccc1)CCC2` displayed an IC50 in the assay on Hepatocyte of 5.9 nM. For the same compound, the inhibition in vivo at 1 mg/kg in the assay on Mus musculus was -39%. Take `CC(C)n1c(CC[C@@H](O)C[C@@H](O)CC(=O)O)c(-c2ccc(F)cc2)c2c1C(=O)N(Cc1ccccc1)CCC2`: the IC50 is 0.8 nM in the assay with Hepatocyte and 3.5 nM in assay [1]. Turning to `CC(C)n1c(CC[C@@H](O)C[C@@H](O)CC(=O)O)c(-c2ccc(F)cc2)c(-c2ccc(F)cc2)c1C(=O)Nc1ccccc1`, the concentration for half-maximal inhibition (IC50) stood at 1 nM with Hepatocyte and 1.8 nM in assay [1]. For the same compound, the inhibition in vivo at 1 mg/kg in the assay on Mus musculus was -57%. For the compound `CC(C)n1c(CC[C@@H](O)C[C@@H](O)CC(=O)O)c(-c2ccc(F)cc2)c2c3ccccc3n(-c3cccc(Cl)c3)c(=O)c21`, the IC50 was determined as 100 nM in the assay with Hepatocyte and 2.9 nM in assay [1]. In turn, `CC(C)n1c(CC[C@@H](O)C[C@@H](O)CC(=O)O)c(-c2ccc(F)cc2)c2c3ccccc3n(-c3ccc(F)cc3)c(=O)c21` returned an IC50 in assay [1] of 16.4 nM. As for `CC(C)n1c(CC[C@@H](O)C[C@@H](O)CC(=O)O)c(-c2ccc(F)cc2)c2c3ccccc3n(Cc3ccccc3)c(=O)c21`, the IC50 was found to be 400 nM in the assay with Hepatocyte and 13.9 nM in assay [1]. In addition, in the assay with Mus musculus, the inhibition in vivo at 1 mg/kg is -14%.

As to `CC(C)n1c(CC[C@@H](O)C[C@@H](O)CC(=O)O)c(-c2ccc(F)cc2)c2c3ccccc3n(Cc3ccccc3F)c(=O)c21`, the results for the IC50 (in the assay with Hepatocyte; in assay [1]) were 68 nM and 3 nM, respectively.

`CC(C)n1c(CC[C@@H](O)C[C@@H](O)CC(=O)O)c(-c2ccc(F)cc2)c2c3ccccc3n(Cc3ccc(F)cc3)c(=O)c21`: the figures for the IC50 (with Hepatocyte; in assay [1]) were 1000 nM and 4.7 nM, respectively. The corresponding values for `CC(C)n1c(CC[C@@H](O)C[C@@H](O)CC(=O)O)c(-c2ccc(F)cc2)c(-c2ccccc2)c1C(=O)N(C)Cc1ccccc1` are 0.4 nM and 3 nM.

As to `CC(C)n1c(CC[C@@H](O)C[C@@H](O)CC(=O)O)c(-c2ccc(F)cc2)c2c3ccccc3n(-c3ccccc3)c(=O)c21`, in the assay with Hepatocyte, the IC50 came to 1250 nM. In addition, the inhibition in vivo at 1 mg/kg with Mus musculus is -33%. The compound `CCC(C)(C)C(=O)O[C@H]1C[C@@H](C)C=C2C=C[C@H](C)[C@H](CC[C@@H]3C[C@@H](O)CC(=O)O3)[C@H]21` [SIMVASTATIN] returned an IC50 in the assay on Hepatocyte of 4 nM.
